Data from patent US9518052B2, “Pyrazolopyridines and pyrazolopyrimidines” (Pfizer Inc., priority 2014, dated 2016).
Structures can show the parent of a compound that is named as a salt.

Legend:
Format in all cases: biochemical
Settings in all cases: Caliper assay at 1 mM ATP
JAK1 = JAK1 (Homo sapiens (Human), UniProt P23458); assay: JAK Caliper Enzyme Assay at 1 mM ATP (JAK1)
JAK2 = JAK2 (Homo sapiens (Human), UniProt O60674); assay: JAK Caliper Enzyme Assay at 1 mM ATP (JAK2)
TYK2 = TYK2 (Homo sapiens (Human), UniProt P29597); assay: JAK Caliper Enzyme Assay at 1 mM ATP (TYK2)
Chain of TYK2 (P29597 whole entry, species assumed): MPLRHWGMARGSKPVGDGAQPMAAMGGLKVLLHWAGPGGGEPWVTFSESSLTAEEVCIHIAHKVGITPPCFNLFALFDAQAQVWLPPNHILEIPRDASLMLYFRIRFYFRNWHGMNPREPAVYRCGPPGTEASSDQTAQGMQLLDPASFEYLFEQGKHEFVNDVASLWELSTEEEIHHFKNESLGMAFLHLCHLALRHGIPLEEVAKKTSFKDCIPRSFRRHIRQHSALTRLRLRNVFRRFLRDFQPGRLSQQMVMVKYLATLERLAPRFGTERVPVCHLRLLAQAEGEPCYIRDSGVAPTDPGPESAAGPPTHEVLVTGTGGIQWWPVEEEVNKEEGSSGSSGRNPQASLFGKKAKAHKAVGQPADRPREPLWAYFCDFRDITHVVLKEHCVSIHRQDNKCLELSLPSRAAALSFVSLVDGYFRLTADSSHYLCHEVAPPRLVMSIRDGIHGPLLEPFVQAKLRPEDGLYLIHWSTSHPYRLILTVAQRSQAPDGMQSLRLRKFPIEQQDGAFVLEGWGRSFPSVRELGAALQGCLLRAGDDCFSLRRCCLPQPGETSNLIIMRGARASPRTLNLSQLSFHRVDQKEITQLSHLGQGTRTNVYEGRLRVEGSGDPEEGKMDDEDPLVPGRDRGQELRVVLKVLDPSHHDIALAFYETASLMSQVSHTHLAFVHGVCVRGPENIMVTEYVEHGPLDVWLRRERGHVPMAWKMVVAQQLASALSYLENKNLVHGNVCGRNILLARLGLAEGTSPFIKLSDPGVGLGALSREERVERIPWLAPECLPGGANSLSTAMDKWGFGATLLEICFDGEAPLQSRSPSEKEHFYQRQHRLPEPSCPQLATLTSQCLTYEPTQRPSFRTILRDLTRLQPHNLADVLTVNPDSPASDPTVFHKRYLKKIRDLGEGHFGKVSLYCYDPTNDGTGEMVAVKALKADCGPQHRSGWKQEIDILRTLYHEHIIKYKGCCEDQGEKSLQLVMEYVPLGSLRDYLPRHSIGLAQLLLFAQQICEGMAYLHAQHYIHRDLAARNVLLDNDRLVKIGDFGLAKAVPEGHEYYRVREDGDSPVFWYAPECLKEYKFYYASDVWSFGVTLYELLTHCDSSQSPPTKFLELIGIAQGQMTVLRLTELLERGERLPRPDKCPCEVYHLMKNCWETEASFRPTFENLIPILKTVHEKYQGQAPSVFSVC

JAK3 = JAK3 (Homo sapiens (Human), UniProt P52333); assay: JAK Caliper Enzyme Assay at 1 mM ATP (JAK3)
Chain of JAK3 (P52333 whole entry, species assumed): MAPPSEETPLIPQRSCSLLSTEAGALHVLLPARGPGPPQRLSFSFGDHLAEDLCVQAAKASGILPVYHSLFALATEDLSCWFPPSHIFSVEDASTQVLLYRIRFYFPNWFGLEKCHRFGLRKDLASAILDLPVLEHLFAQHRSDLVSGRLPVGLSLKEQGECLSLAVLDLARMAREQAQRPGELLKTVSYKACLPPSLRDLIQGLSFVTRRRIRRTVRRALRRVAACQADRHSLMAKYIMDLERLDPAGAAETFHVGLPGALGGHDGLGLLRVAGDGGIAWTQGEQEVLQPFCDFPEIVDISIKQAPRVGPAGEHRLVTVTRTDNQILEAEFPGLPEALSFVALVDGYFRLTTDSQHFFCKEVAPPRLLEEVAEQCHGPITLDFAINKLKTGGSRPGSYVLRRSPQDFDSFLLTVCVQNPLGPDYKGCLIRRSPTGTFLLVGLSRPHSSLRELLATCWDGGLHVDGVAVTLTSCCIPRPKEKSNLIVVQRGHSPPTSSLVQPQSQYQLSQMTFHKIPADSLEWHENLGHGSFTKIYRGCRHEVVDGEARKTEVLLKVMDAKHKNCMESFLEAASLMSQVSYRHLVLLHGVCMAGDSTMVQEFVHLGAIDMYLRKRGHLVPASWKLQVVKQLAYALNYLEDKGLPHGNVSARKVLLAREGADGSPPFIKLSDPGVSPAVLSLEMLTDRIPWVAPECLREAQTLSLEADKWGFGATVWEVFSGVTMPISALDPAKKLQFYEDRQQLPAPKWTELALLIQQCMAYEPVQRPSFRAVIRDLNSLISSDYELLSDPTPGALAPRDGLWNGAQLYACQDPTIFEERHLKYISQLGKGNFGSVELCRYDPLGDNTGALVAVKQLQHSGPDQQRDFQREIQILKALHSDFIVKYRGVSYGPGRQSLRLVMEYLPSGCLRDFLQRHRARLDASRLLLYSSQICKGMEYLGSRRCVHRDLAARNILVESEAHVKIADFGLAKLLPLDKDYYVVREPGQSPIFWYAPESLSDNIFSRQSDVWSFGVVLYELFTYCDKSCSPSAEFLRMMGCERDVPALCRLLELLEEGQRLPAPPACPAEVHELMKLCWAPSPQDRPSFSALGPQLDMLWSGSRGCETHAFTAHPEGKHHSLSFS

Chain of JAK2 (O60674 whole entry, species assumed): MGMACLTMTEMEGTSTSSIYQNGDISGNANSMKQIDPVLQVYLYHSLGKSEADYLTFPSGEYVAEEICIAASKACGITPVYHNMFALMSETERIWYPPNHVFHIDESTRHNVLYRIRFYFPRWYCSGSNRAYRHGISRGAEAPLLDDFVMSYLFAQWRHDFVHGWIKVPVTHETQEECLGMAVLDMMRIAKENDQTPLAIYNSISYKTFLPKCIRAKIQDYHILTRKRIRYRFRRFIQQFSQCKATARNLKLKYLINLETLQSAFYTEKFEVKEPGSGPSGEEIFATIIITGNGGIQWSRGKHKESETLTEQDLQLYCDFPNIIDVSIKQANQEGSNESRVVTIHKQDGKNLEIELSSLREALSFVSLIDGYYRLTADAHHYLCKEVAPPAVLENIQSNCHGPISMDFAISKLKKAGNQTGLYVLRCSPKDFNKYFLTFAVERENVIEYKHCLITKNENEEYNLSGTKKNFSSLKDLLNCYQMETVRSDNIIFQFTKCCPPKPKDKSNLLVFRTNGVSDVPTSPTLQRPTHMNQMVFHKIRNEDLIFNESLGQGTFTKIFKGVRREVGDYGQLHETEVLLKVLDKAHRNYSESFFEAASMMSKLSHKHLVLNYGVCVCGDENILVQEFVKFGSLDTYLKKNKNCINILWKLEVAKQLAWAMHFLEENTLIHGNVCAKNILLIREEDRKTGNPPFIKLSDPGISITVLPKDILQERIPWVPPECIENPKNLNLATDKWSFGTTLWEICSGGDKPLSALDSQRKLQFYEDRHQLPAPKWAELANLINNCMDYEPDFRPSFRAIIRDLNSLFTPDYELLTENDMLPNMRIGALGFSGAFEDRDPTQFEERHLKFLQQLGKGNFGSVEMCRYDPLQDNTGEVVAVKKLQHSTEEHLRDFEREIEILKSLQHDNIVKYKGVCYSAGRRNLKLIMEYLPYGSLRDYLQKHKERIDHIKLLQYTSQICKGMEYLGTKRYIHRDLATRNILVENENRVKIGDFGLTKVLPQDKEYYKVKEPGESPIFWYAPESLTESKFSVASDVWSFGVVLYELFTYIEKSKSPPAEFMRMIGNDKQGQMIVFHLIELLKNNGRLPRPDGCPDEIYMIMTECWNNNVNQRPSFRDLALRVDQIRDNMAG
Chain of JAK1 (P23458 whole entry, species assumed): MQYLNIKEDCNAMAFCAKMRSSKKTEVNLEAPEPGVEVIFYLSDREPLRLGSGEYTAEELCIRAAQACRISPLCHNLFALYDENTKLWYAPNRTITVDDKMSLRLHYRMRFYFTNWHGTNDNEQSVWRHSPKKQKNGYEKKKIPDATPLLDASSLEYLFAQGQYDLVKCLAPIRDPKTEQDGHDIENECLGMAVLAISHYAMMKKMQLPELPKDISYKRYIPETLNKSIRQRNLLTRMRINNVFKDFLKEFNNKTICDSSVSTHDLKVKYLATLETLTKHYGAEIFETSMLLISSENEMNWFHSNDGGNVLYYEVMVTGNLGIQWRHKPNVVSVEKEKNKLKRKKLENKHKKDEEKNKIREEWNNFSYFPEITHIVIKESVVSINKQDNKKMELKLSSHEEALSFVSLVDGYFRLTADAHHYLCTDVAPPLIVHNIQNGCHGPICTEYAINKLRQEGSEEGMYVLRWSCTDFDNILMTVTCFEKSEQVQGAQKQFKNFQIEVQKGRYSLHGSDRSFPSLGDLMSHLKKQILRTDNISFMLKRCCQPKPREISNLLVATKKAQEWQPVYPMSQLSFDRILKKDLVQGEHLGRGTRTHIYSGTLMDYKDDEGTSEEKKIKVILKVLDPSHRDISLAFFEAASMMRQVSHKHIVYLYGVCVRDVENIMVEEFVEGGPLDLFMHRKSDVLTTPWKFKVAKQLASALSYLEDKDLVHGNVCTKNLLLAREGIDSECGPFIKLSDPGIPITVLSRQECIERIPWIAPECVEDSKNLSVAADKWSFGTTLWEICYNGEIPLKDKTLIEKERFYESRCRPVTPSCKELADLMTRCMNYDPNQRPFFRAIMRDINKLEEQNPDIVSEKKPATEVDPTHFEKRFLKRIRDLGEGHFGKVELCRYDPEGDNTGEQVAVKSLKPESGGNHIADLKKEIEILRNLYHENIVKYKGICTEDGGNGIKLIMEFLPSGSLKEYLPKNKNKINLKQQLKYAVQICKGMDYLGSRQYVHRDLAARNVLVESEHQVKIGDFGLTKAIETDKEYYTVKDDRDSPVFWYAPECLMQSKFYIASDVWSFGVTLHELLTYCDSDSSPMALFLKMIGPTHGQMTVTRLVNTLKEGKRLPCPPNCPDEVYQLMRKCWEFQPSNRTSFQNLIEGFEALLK

Structure (SMILES)	IC50 (JAK1)	IC50 (JAK2)	IC50 (TYK2)	IC50 (JAK3)
CCN(c1ncc(F)cc1CNc1nc(-c2cc(F)c(O)cc2CC(F)(F)F)cc2[nH]nc(C(N)=O)c12)S(C)(=O)=O [Example 79, 4-[({2-[ethyl(methylsulfonyl)amino]-5-fluoropyridin-3-yl}methyl)amino]-6-[5-fluoro-4-hydroxy-2-(2,2,2-trifluoroethyl)phenyl]-1H-pyrazolo[4,3-c]pyridine-3-carboxamide]	10.7 nM	59.1 nM	698 nM	175 nM
CCc1cc(O)c(F)cc1-c1cc2[nH]nc(-c3nnc(C)[nH]3)c2c(NCc2ccccc2N(C)S(C)(=O)=O)n1 [Example 165, N-[2-({[6-(2-Ethyl-5-fluoro-4-hydroxyphenyl)-3-(5-methyl-4H-1,2,4-triazol-3-yl)-1H-pyrazolo[4,3-c]pyridin-4-yl]amino}methyl)phenyl]-N-methylmethanesulfonamide]	3.5 nM	16.9 nM	14.6 nM	78 nM
CCc1cc(O)c(F)cc1-c1cc2[nH]ncc2c(NCc2c(F)cccc2N(C)S(C)(=O)=O)n1 [Example 134, N-[2-({[6-(2-ethyl-5-fluoro-4-hydroxyphenyl)-1H-pyrazolo[4,3-c]pyridin-4-yl]amino}methyl)-3-fluorophenyl]-N-methylmethanesulfonamide hydrochloride]	< 0.5 nM	1.7 nM	20.3 nM	7.6 nM
CCc1cc(O)c(F)cc1-c1cc2[nH]nc(C(=O)NC)c2c(NCc2cc(Cl)ccc2N(C)S(C)(=O)=O)n1 [Example 6, 4-({5-chloro-2-[methyl(methyl-sulfonyl)amino]benzyl}amino)-6-(2-ethyl-5-fluoro-4-hydroxy-phenyl)-N-methyl-1H-pyrazolo[4,3-c]pyridine-3-carboxamide]	3.1 nM	15.8 nM	15.3 nM	84.9 nM
CCc1cc(O)c(F)cc1-c1cc2[nH]nc(C(=O)Nc3ccc(C)nc3)c2c(NCc2ccccc2N(C)S(C)(=O)=O)n1 [Example 56, 6-(2-ethyl-5-fluoro-4-hydroxy-phenyl)-4-({2-[methyl(methylsulfonyl)amino]benzyl}amino)-N-(6-methylpyridin-3-yl)-1H-pyrazolo[4,3-c]pyridine-3-carboxamide]	6.6 nM	26.1 nM	19.9 nM	135 nM
CN(c1ccccc1CNc1nc(-c2cc(F)c(O)cc2CC(F)(F)F)cc2[nH]nc(C(N)=O)c12)S(=O)(=O)c1ccc(N2CCOCC2)nc1 [Example 65, 6-[5-fluoro-4-hydroxy-2-(2,2,2-trifluoroethyl)phenyl]-4-{[2-(methyl{[6-(morpholin-4-yl)pyridin-3-yl]sulfonyl}amino)benzyl]amino}-1H-pyrazolo[4,3-c]pyridine-3-carboxamide]	23.3 nM	83.8 nM	126 nM	283 nM
CN(c1ccccc1CNc1nc(-c2cc(F)c(O)cc2CC(F)(F)F)cc2[nH]nc(-n3cccn3)c12)S(C)(=O)=O [Example 163, N-{2-[({6-[5-Fluoro-4-hydroxy-2-(2,2,2-trifluoroethyl)phenyl]-3-(1H-pyrazol-1-yl)-1H-pyrazolo[4,3-c]pyridin-4-yl}amino)methyl]phenyl}-N-methylmethanesulfonamide]	32.9 nM	150 nM	356 nM	491 nM
CCN(c1ccc(Cl)cc1CNc1nc(-c2cc(F)c(O)cc2CC(F)(F)F)cc2[nH]nc(C(N)=O)c12)S(C)(=O)=O [Example 84, 4-((5-chloro-2-(N-ethylmethylsulfonamido)benzyl)amino)-6-(5-fluoro-4-hydroxy-2-(2,2,2-trifluoro-ethyl)phenyl)-1H-pyrazolo[4,3-c]pyridine-3-carboxamide]	27.6 nM	142 nM	880 nM	537 nM
CCc1cc(O)c(F)cc1-c1cc2[nH]ncc2c(N(CC)Cc2cc(C)ccc2N(C)S(C)(=O)=O)n1 [Example 143, N-[2-({ethyl[6-(2-ethyl-5-fluoro-4-hydroxyphenyl)-1H-pyrazolo[4,3-c]pyridin-4-yl]amino}methyl)-4-methylphenyl]-N-methylmethanesulfonamide]	40.4 nM	43.6 nM	4660 nM	122 nM
CN(c1ccccc1CNc1nc(-c2cc(F)c(O)cc2CC(F)(F)F)cc2[nH]nc(C(N)=O)c12)S(=O)(=O)CCCN1CCOCC1 [Example 66, 6-[5-fluoro-4-hydroxy-2-(2,2,2-trifluoroethyl)phenyl]-4-{[2-(methyl{[3-(morpholin-4-yl)propyl]sulfonyl}-amino)benzyl]amino}-1H-pyrazolo[4,3-c]pyridine-3-carboxamide]	3.5 nM	14.8 nM	81.3 nM	60 nM
CCc1cc(O)c(F)cc1-c1cc2[nH]nc(C(=O)NC)c2c(NCc2cc(O)ccc2N(C)S(C)(=O)=O)n1 [Example 31, 6-(2-Ethyl-5-fluoro-4-hydroxyphenyl)-4-({5-hydroxy-2-[methyl(methylsulfonyl)amino]benzyl}amino)-N-methyl-1H-pyrazolo[4,3-c]pyridine-3-carboxamide]	1.3 nM	7 nM	4.6 nM	33 nM
CNC(=O)c1n[nH]c2cc(-c3cc(F)c(O)cc3CC(F)(F)F)nc(NCC(C)C)c12 [Example 16, 6-[5-fluoro-4-hydroxy-2-(2,2,2-trifluoroethyl)phenyl]-N-methyl-4-[(2-methylpropyl)amino]-1H-pyrazolo[4,3-c]pyridine-3-carboxamide]	6.3 nM	23 nM	66 nM	131 nM
Cc1ccc(NC(=O)c2n[nH]c3cc(-c4cc(F)c(O)cc4CC(F)(F)F)nc(NCc4ccccc4N(C)S(C)(=O)=O)c23)cn1 [Example 76, 6-[5-Fluoro-4-hydroxy-2-(2,2,2-trifluoroethyl)phenyl]-4-({2-[methyl(methylsulfonyl)amino]-benzyl}amino)-N-(6-methylpyridin-3-yl)-1H-pyrazolo[4,3-c]pyridine-3-carboxamide]	29.6 nM	113 nM	316 nM	475 nM
CCN(c1ccccc1CNc1nc(-c2cc(F)c(O)cc2CC(F)(F)F)cc2[nH]nc(C(=O)NC)c12)S(=O)(=O)CC [Example 1, 4-({2-[Ethyl(ethylsulfonyl)amino]benzyl}amino)-6-[5-fluoro-4-hydroxy-2-(2,2,2-trifluoroethyl)phenyl]-N-methyl-1H-pyrazolo[4,3-c]pyridine-3-carboxamide]	8 nM	38.1 nM	36.5 nM	177 nM
CCc1cc(O)c(F)cc1-c1cc2[nH]nc(C(N)=O)c2c(NCc2ccc(O)cc2N(C)S(C)(=O)=O)n1 [Example 30, 6-(2-Ethyl-5-fluoro-4-hydroxyphenyl)-4-({4-hydroxy-2-[methyl(methylsulfonyl)amino]benzyl}amino)-1H-pyrazolo[4,3-c]pyridine-3-carboxamide]	1 nM	5.8 nM	29 nM	23.3 nM
CNC(=O)c1n[nH]c2cc(-c3cc(F)c(O)cc3CC(F)(F)F)nc(NCc3ccccc3N(C)S(=O)(=O)c3cccc(O)c3)c12 [Example 32, 6-[5-Fluoro-4-hydroxy-2-(2,2,2-trifluoroethyl)phenyl]-4-[(2-{[(3-hydroxyphenyl)sulfonyl](methyl)amino}benzyl)amino]-N-methyl-1H-pyrazolo[4,3-c]pyridine-3-carboxamide]	60.4 nM	277 nM	373 nM	839 nM
CNC(=O)c1n[nH]c2cc(-c3cc(F)c(O)cc3CC(F)(F)F)nc(NCc3ccccc3N(C)S(=O)(=O)c3cccnc3)c12 [Example 68, 6-[5-fluoro-4-hydroxy-2-(2,2,2-trifluoroethyl)phenyl]-N-methyl-4-({2-[methyl(pyridin-3-ylsulfonyl)amino]-benzyl}amino)-1H-pyrazolo[4,3-c]pyridine-3-carboxamide]	14.2 nM	72.7 nM	72.3 nM	253 nM
CCc1cc(O)c(F)cc1-c1cc2[nH]nc(C(=O)NC)c2c(NCc2ccccc2N(C)S(N)(=O)=O)n1 [Example 73, 6-(2-ethyl-5-fluoro-4-hydroxyphenyl)-N-methyl-4-({2-[methyl(sulfamoyl)-amino]benzyl}amino)-1H-pyrazolo[4,3-c]pyridine-3-carboxamide]	5.4 nM	18.8 nM	33.9 nM	80.9 nM
CCc1cc(O)c(F)cc1-c1cc2[nH]nc(C(=O)NC)c2c(NCc2c(F)cccc2N(C)S(C)(=O)=O)n1 [Example 8, 6-(2-ethyl-5-fluoro-4-hydroxyphenyl)-4-({2-fluoro-6-[methyl(methyl-sulfonyl)amino]benzyl}amino)-N-methyl-1H-pyrazolo[4,3-c]pyridine-3-carboxamide]	1.7 nM	7.5 nM	5.7 nM	33.8 nM
CN(c1ccccc1CNc1nc(-c2cc(F)c(O)cc2CC(F)(F)F)cc2[nH]ncc12)S(C)(=O)=O [Example 148, N-{2-[({6-[5-Fluoro-4-hydroxy-2-(2,2,2-trifluoroethyl)phenyl]-1H-pyrazolo[4,3-c]pyridin-4-yl}amino)methyl]phenyl}-N-methylmethanesulfonamide]	1.8 nM	6.3 nM	146 nM	22.8 nM
CCN(c1nccnc1CNc1nc(-c2cc(F)c(O)cc2CC(F)(F)F)cc2[nH]nc(C(N)=O)c12)S(C)(=O)=O [Example 80, 4-[({3-[ethyl(methylsulfonyl)amino]pyrazin-2-yl}methyl)amino]-6-[5-fluoro-4-hydroxy-2-(2,2,2-trifluoroethyl)phenyl]-1H-pyrazolo[4,3-c]pyridine-3-carboxamide]	2.9 nM	16.2 nM	167 nM	49.2 nM
